Test results from ChEMBL document CHEMBL1629707, “Naphthalimide based novel organoselenocyanates: finding less toxic forms of selenium that would retain protective efficacy” (Bioorg Med Chem Lett, 2010).

Assays:
[1] = test system: Mus musculus; test: Hepatotoxicity in Swiss albino mouse assessed as plasma ALT level at 3 mg/kg, po after 30 days (reference value: 66.00+/-4.18 U/mL); assay type: toxicity, organism-based; set-up: dose 3 mg/kg, route oral; conditions: in vivo, 720 h
[2] = test system: Mus musculus; test: Increase of TRxR level in Swiss albino mouse liver assessed per mg of protein at 3 mg/kg, po after 30 days (reference value: 3.20+/-0.134 U); assay type: functional
[3] = test system: Mus musculus; test: Toxicity in Swiss albino mouse assessed as loss of body weight at 3 mg/kg, po administered for 30 days; assay type: organism-based; set-up: dose 3 mg/kg, route oral; conditions: in vivo, 720 h
[4] = test system: Mus musculus; test: Increase of GSH level in Swiss albino mouse liver assessed per mg of protein at 3 mg/kg, po after 30 days (reference value: 46.87+/-1.88 nmol); assay type: functional
[5] = test system: Mus musculus; test: Increase of SOD level in Swiss albino mouse liver assessed per mg of protein at 3 mg/kg, po after 30 days (reference value: 250.16+/-7.46 U); assay type: functional
[6] = test system: Mus musculus; test: Hepatotoxicity in Swiss albino mouse assessed as plasma AST level at 3 mg/kg, po after 30 days (reference value: 179.00+/-4.18 U/mL); assay type: toxicity, organism-based; set-up: dose 3 mg/kg, route oral; conditions: in vivo, 720 h
[7] = test system: Mus musculus; test: Nephrotoxicity in Swiss albino mouse assessed as BUN level at 3 mg/kg, po after 30 days (reference value: 21.57+/-0.92 mg/dL); assay type: toxicity, organism-based; set-up: dose 3 mg/kg, route oral; conditions: in vivo, 720 h
[8] = Toxicity in po dosed Swiss albino mouse; assay type: organism-based; conditions: in vivo
[9] = test system: Mus musculus; test: Nephrotoxicity in Swiss albino mouse assessed as serum creatinine level at 3 mg/kg, po after 30 days (reference value: 9.40+/-0.48 mg/dL); assay type: toxicity, organism-based; set-up: dose 3 mg/kg, route oral; conditions: in vivo, 720 h
[10] = test system: Mus musculus; test: Toxicity in Swiss albino mouse assessed as decrease in final body weight at 1.2 mg/kg, po administered for 30 days; assay type: organism-based; set-up: dose 1.2 mg/kg, route oral; conditions: in vivo, 720 h
[11] = Induction of chromosomal aberration in Swiss albino mouse bone marrow cell at 3 mg/kg, po after 30 days (reference value: 14.88+/-0.99 %); assay type: organism-based; set-up: dose 3 mg/kg, route oral; conditions: in vivo, 720 h
[12] = test system: Mus musculus; test: Increase of GST level in Swiss albino mouse liver assessed as CDNB-GSH conjugate per mg of protein at 3 mg/kg, po after 30 days (reference value: 95.66+/-4.0 nmol/min); assay type: functional
[13] = test system: Mus musculus; test: Toxicity in Swiss albino mouse assessed as hemoglobin level at 3 mg/kg, po after 30 days (reference value: 12.56+/-0.43 gm/dL); assay type: organism-based; set-up: dose 3 mg/kg, route oral; conditions: in vivo, 720 h
[14] = test system: Mus musculus; test: Increase of Gpx level in Swiss albino mouse liver assessed as NADPH oxidation per mg of protein at 3 mg/kg, po after 30 days (reference value: 0.646+/-0.030 umol); assay type: functional
[15] = test system: Mus musculus; test: Hepatotoxicity in Swiss albino mouse assessed as TBARS production per mg of protein at 3 mg/kg, po after 30 days (reference value: 0.26+/-0.02 nmol); assay type: toxicity, organism-based; set-up: dose 3 mg/kg, route oral; conditions: in vivo, 720 h
[16] = test system: Mus musculus; test: Increase of CAT level in Swiss albino mouse liver assessed per mg of protein at 3 mg/kg, po after 30 days (reference value: 41.66+/-1.33 U); assay type: functional
[17] = test system: Mus musculus; test: Hepatotoxicity in Swiss albino mouse assessed as inflammation at 3 mg/kg, po after 30 days by histopathology analysis; assay type: toxicity, organism-based; set-up: dose 3 mg/kg, route oral; conditions: in vivo, 720 h
[18] = test system: Mus musculus; test: Hepatotoxicity in Swiss albino mouse assessed as lesion at 3 mg/kg, po after 30 days by histopathology analysis; assay type: toxicity, organism-based; set-up: dose 3 mg/kg, route oral; conditions: in vivo, 720 h
[19] = test system: Mus musculus; test: Nephrotoxicity in Swiss albino mouse assessed as lesion at 3 mg/kg, po after 30 days by histopathology analysis; assay type: toxicity, organism-based; set-up: dose 3 mg/kg, route oral; conditions: in vivo, 720 h
[20] = test system: Mus musculus; test: Nephrotoxicity in Swiss albino mouse assessed as necrosis at 3 mg/kg, po after 30 days by histopathology analysis; assay type: toxicity, organism-based; set-up: dose 3 mg/kg, route oral; conditions: in vivo, 720 h
[21] = test system: Mus musculus; test: Increase of TRxR level in Swiss albino mouse liver assessed per mg of protein at 3 mg/kg, po after 30 days relative to control; assay type: functional
[22] = test system: Mus musculus; test: Nephrotoxicity in Swiss albino mouse assessed as inflammation at 3 mg/kg, po after 30 days by histopathology analysis; assay type: toxicity, organism-based; set-up: dose 3 mg/kg, route oral; conditions: in vivo, 720 h
[23] = test system: Mus musculus; test: Hepatotoxicity in Swiss albino mouse assessed as necrosis at 3 mg/kg, po after 30 days by histopathology analysis; assay type: toxicity, organism-based; set-up: dose 3 mg/kg, route oral; conditions: in vivo, 720 h
[24] = test system: Mus musculus; test: Increase of Gpx level in Swiss albino mouse liver assessed as NADPH oxidation per mg of protein at 3 mg/kg, po after 30 days relative to control; assay type: functional
[25] = test system: Mus musculus; test: Hepatotoxicity in Swiss albino mouse assessed as TBARS production per mg of protein at 1.2 mg/kg, po after 30 days (reference value: 0.26+/-0.02 nmol); assay type: toxicity, organism-based; set-up: dose 1.2 mg/kg, route oral; conditions: in vivo, 720 h
[26] = test system: Mus musculus; test: Nephrotoxicity in Swiss albino mouse assessed as BUN level at 1.2 mg/kg, po after 30 days (reference value: 21.57+/-0.92 mg/dL); assay type: toxicity, organism-based; set-up: dose 1.2 mg/kg, route oral; conditions: in vivo, 720 h
[27] = test system: Mus musculus; test: Increase of TRxR level in Swiss albino mouse liver assessed per mg of protein at 1.2 mg/kg, po after 30 days (reference value: 3.20+/-0.134 U); assay type: functional
[28] = test system: Mus musculus; test: Toxicity in Swiss albino mouse assessed as hemoglobin level at 1.2 mg/kg, po after 30 days (reference value: 12.56+/-0.43 gm/dL); assay type: organism-based; set-up: dose 1.2 mg/kg, route oral; conditions: in vivo, 720 h
[29] = test system: Mus musculus; test: Hepatotoxicity in Swiss albino mouse assessed as plasma ALT level at 1.2 mg/kg, po after 30 days (reference value: 66.00+/-4.18 U/mL); assay type: toxicity, organism-based; set-up: dose 1.2 mg/kg, route oral; conditions: in vivo, 720 h
[30] = test system: Mus musculus; test: Nephrotoxicity in Swiss albino mouse assessed as serum creatinine level at 1.2 mg/kg, po after 30 days (reference value: 9.40+/-0.48 mg/dL); assay type: toxicity, organism-based; set-up: dose 1.2 mg/kg, route oral; conditions: in vivo, 720 h
[31] = test system: Mus musculus; test: Hepatotoxicity in Swiss albino mouse assessed as infiltration of mononuclear cells at 1.2 mg/kg after 30 days by histopathology analysis; assay type: toxicity, organism-based; set-up: dose 1.2 mg/kg; conditions: in vivo, 720 h
[32] = test system: Mus musculus; test: Hepatotoxicity in Swiss albino mouse assessed as plasma AST level at 1.2 mg/kg, po after 30 days (reference value: 179.00+/-4.18 U/mL); assay type: toxicity, organism-based; set-up: dose 1.2 mg/kg, route oral; conditions: in vivo, 720 h
[33] = test system: Mus musculus; test: Increase of GST level in Swiss albino mouse liver assessed as CDNB-GSH conjugate per mg of protein at 1.2 mg/kg, po after 30 days (reference value: 95.66+/-4.0 nmol/min); assay type: functional
[34] = test system: Mus musculus; test: Increase of GSH level in Swiss albino mouse liver assessed per mg of protein at 1.2 mg/kg, po after 30 days (reference value: 46.87+/-1.88 nmol); assay type: functional
[35] = test system: Mus musculus; test: Increase of CAT level in Swiss albino mouse liver assessed per mg of protein at 1.2 mg/kg, po after 30 days (reference value: 41.66+/-1.33 U); assay type: functional
[36] = test system: Mus musculus; test: Increase of Gpx level in Swiss albino mouse liver assessed as NADPH oxidation per mg of protein at 1.2 mg/kg, po after 30 days (reference value: 0.646+/-0.030 umol); assay type: functional
[37] = Induction of chromosomal aberration in Swiss albino mouse bone marrow cell at 1.2 mg/kg, po after 30 days (reference value: 14.88+/-0.99 %); assay type: organism-based; set-up: dose 1.2 mg/kg, route oral; conditions: in vivo, 720 h
[38] = test system: Mus musculus; test: Nephrotoxicity in Swiss albino mouse assessed as infiltration of mononuclear cells at 1.2 mg/kg after 30 days by histopathology analysis; assay type: toxicity, organism-based; set-up: dose 1.2 mg/kg; conditions: in vivo, 720 h
[39] = test system: Mus musculus; test: Increase of SOD level in Swiss albino mouse liver assessed per mg of protein at 1.2 mg/kg, po after 30 days (reference value: 250.16+/-7.46 U); assay type: functional

## N#C[Se]CCCCCN1C(=O)c2cccc3cccc(c23)C1=O
[1]
  Activity: 61 U/ml
[2]
  Activity: 4.61 U
[3]
  Activity: Non-toxic
[4]
  Activity: 50.94 nM
[5]
  Activity: 258.56 U
[6]
  Activity: 160 U/ml
[7]
  Activity: 160 mg/dL
[8]
  LD50: > 1000 mg/kg
[9]
  Activity: 6.4 mg/dL
[10]
  Activity: Toxic
[11]
  Activity: 13.39%
[12]
  Activity: 104.41 nM
[13]
  Activity: 13.08 g/dL
[14]
  Activity: 0.864 U
[15]
  Activity: 0.24 nM
[16]
  Activity: 45.48 U

## N#C[Se]CCCCCN1C(=O)c2cccc3c(Cl)ccc(c23)C1=O
[1]
  Activity: 64 U/ml
[2]
  Activity: 4.21 U
[3]
  Activity: Non-toxic
[4]
  Activity: 59.34 nM
[5]
  Activity: 268.71 U
[6]
  Activity: 142 U/ml
[7]
  Activity: 142 mg/dL
[8]
  LD50: > 1000 mg/kg
[9]
  Activity: 7.45 mg/dL
[10]
  Activity: Toxic
[11]
  Activity: 13.97%
[12]
  Activity: 106.58 nM
[13]
  Activity: 12.86 g/dL
[14]
  Activity: 0.995 U
[15]
  Activity: 0.26 nM
[16]
  Activity: 46.6 U

## N#C[Se]CCCCCN1C(=O)c2cccc3cc([N+](=O)[O-])cc(c23)C1=O
[1]
  Activity: 62 U/ml
[2]
  Activity: 4.15 U
[3]
  Activity: Non-toxic
[4]
  Activity: 55.82 nM
[5]
  Activity: 267.68 U
[6]
  Activity: 154 U/ml
[8]
  LD50: > 1000 mg/kg
[9]
  Activity: 7.86 mg/dL
[10]
  Activity: Toxic
[11]
  Activity: 13.85%
[12]
  Activity: 97.29 nM
[13]
  Activity: 12.76 g/dL
[14]
  Activity: 0.938 U
[15]
  Activity: 0.25 nM
[16]
  Activity: 44.06 U

## N#C[Se]CCCCCN1C(=O)c2cccc3c(N)ccc(c23)C1=O
[17]
  Activity: Non-toxic
[1]
  Activity: 59 U/ml
[18]
  Activity: Non-toxic
[3]
  Activity: Non-toxic
[19]
  Activity: Non-toxic
[20]
  Activity: Non-toxic
[4]
  Activity: 60.4 nM
[5]
  Activity: 296.03 U
[6]
  Activity: 148 U/ml
[7]
  Activity: 148 mg/dL
[8]
  LD50: > 1000 mg/kg
[21]
  Activity: 53.43%
[9]
  Activity: 7.13 mg/dL
[10]
  Activity: Toxic
[11]
  Activity: 12.7%
[12]
  Activity: 116.19 nM
[13]
  Activity: 13.24 g/dL
[15]
  Activity: 0.22 nM
[22]
  Activity: Non-toxic
[23]
  Activity: Non-toxic
[16]
  Activity: 53.04 U
[24]
  Activity: 63.77%

## O=[Se]([O-])[O-].[Na+].[Na+] [SODIUM SELENITE]
[25]
  Activity: 0.3 nM
[26]
  Activity: 22.6 mg/dL
[27]
  Activity: 3.75 U
[28]
  Activity: 11.28 g/dL
[29]
  Activity: 72 U/ml
[30]
  Activity: 8.47 mg/dL
[31]
  Activity: Toxic
[32]
  Activity: 191 U/ml
[33]
  Activity: 85.31 nM
[34]
  Activity: 44.84 nM
[8]
  LD50: 25 mg/kg
[35]
  Activity: 36.6 U
[36]
  Activity: 0.692 U
[37]
  Activity: 16.4%
[38]
  Activity: Toxic
[39]
  Activity: 236.98 U
